# Test results from paper PMC11876671, “Investigating blood–brain barrier penetration and neurotoxicity of natural products for central nervous system drug development” (Scientific Reports, 2025).
# Counter-ions that a name gives are not always drawn.
# Test: in vitro
# Settings: PAMPA, PAMPA-BBB Pe
row,SMILES,Papp [×10⁻⁶ cm/s]
1,COc1cc2c(cc1OC)[C@@H]1Cc3ccc(OC)c(OC)c3CN1CC2 [TETRAHYDROPALMATINE],156

# Same assay, conditions: PAMPA, PAMPA-BBB Pe(10^-6 cm/sec)
row,SMILES,Papp [×10⁻⁶ cm/s]
1,CC[C@H](C)C(=O)O[C@H]1C[C@H](O)C=C2C=C[C@H](C)[C@H](CC[C@@H](O)C[C@@H](O)CC(=O)O)[C@H]21 [PRAVASTATIN SODIUM],< 1
2,COc1ccc(C[C@H](N)C(=O)N[C@@H]2[C@@H](CO)OC(n3cnc4c(N(C)C)ncnc43)[C@@H]2O)cc1 (some centres unmarked) [PUROMYCIN MONOHYDROCHLORIDE],< 1
3,CNCC(O)c1ccc(O)c(O)c1 (centres unmarked) [RACEPINEPHRINE HYDROCHLORIDE],< 1
4,Cc1cc2nc3c(=O)[nH]c(=O)nc-3n(C[C@H](O)[C@H](O)[C@H](O)CO)c2cc1C [RIBOFLAVIN],< 1
5,CO[C@H]1/C=C/O[C@@]2(C)Oc3c(C)c(O)c4c(O)c(c(/C=N/N5CCN(C)CC5)c(O)c4c3C2=O)NC(=O)/C(C)=C\C=C\[C@H](C)[C@H](O)[C@@H](C)[C@@H](O)[C@@H](C)[C@H](OC(C)=O)[C@@H]1C [Rifampicin],3.7
6,Cn1cnc2c1c(=O)[nH]c(=O)n2C [THEOBROMINE],< 1
7,Cc1ncc(C[n+]2csc(CCO)c2C)c(N)n1 [THIAMINE MONONITRATE],< 1
8,C[n+]1cccc(C(=O)[O-])c1 [TRIGONELLINE],< 1

# Same assay, conditions: PAMPA, PAMPA-BBB Pe(10^-6 cm/sec), Table S3: compounds exhibiting low PAMPA-BBB permeability
row,SMILES,Papp [×10⁻⁶ cm/s]
1,C[C@@H]1O[C@@H](O[C@@H]2C=C3CC[C@@H]4[C@H](CC[C@]5(C)[C@@H](c6ccc(=O)oc6)CC[C@]45O)[C@@]3(C)CC2)[C@H](O)[C@H](O)[C@H]1O [PROSCILLARIDIN],1.5
2,CCCCC[C@H](O)/C=C/C1=C(CCCCCCC(=O)O)C(=O)CC1 [PROSTAGLANDIN B1],< 1
3,CC(=O)O[C@@]12C[C@@H](C)[C@@]3(O)[C@@H](C=C(CO)C[C@]4(O)C(=O)C(C)=C[C@@H]34)[C@@H]1C2(C)C [PROSTRATIN],< 1
4,O=C(O)c1ccc(O)c(O)c1 [PROT[…]],< 1
5,O=c1c(-c2ccc(O)cc2)coc2c([C@@H]3O[C@H](CO)[C@@H](O)[C@H](O)[C@H]3O)c(O)ccc12 [PUERARIN],< 1
6,O=C(O)c1cccc(O)c1O [PYR[…]],< 1
7,COc1ccc2[nH]c3c(c2c1)CCNC3 [Pinoline],2.5
8,O=c1c(O)c(-c2ccc(O)c(O)c2)oc2cc(O)cc(O)c12 [QUERCETIN],< 1
9,C[C@H]1O[C@@H](Oc2c(-c3ccc(O)c(O)c3)oc3cc(O)cc(O)c3c2=O)[C@H](O)[C@H](O)[C@H]1O [QUERCITROSIDE],< 1
10,O=C(O)[C@H]1O[C@@H](Oc2c(-c3ccc(O)c(O)c3)oc3cc(O)cc(O)c3c2=O)[C@H](O)[C@@H](O)[C@@H]1O [QUERCITURONE],4.2
11,O=C(O)c1cccnc1C(=O)O [QUINOLINIC ACID],< 1
12,CC(=O)CCc1ccc(O)cc1 [RASPBERRY KETONE],4.1
13,Oc1ccc(/C=C/c2cc(O)cc(O)c2)cc1 [RESVERATROL],1.8
14,C[C@@H]1O[C@@H](O[C@H]2[C@H](Oc3cc(O)c4c(=O)cc(-c5ccc(O)cc5)oc4c3)O[C@H](CO)[C@@H](O)[C@@H]2O)[C@H](O)[C@H](O)[C@H]1O [RHOIFOLIN],< 1
15,CC[C@H]1CN2CC[C@]3(C(=O)Nc4ccccc43)[C@@H]2C[C@@H]1/C(=C\OC)C(=O)OC [RHYNCHOPHYLLINE],6.5
16,CC(C)=CCNc1ncnc2c1ncn2[C@@H]1O[C@H](CO)[C@@H](O)[C@H]1O [RIBOPRINE],< 1
17,CO[C@H]1/C=C/O[C@@]2(C)Oc3c(C)c(O)c4c(O)c(cc(O)c4c3C2=O)NC(=O)/C(C)=C\C=C\[C@H](C)[C@H](O)[C@@H](C)[C@@H](O)[C@@H](C)[C@H](OC(C)=O)[C@@H]1C [RIFAMYCIN],< 1
18,CNCC/C=C/c1cccnc1 [RIVANICLINE],7.1
19,O=c1c(O)c(-c2cc(O)c(O)c(O)c2)oc2cc(O)ccc12 [ROBINETIN],1
20,OC[C@H]1O[C@@H](OC[C@H]2O[C@@H](OC/C=C/c3ccccc3)[C@H](O)[C@@H](O)[C@@H]2O)[C@@H](O)[C@@H]1O [ROSARIN],< 1
21,O[C@@H]1[C@@H](O)[C@H](OC/C=C/c2ccccc2)O[C@H](CO[C@@H]2OC[C@H](O)[C@H](O)[C@H]2O)[C@H]1O [ROSAVIN],< 1
22,O=C(/C=C/c1ccc(O)c(O)c1)O[C@H](Cc1ccc(O)c(O)c1)C(=O)O [ROSMARINIC ACID],3.4
23,C[C@@H]1O[C@@H](OC[C@H]2O[C@@H](Oc3c(-c4ccc(O)c(O)c4)oc4cc(O)cc(O)c4c3=O)[C@H](O)[C@@H](O)[C@@H]2O)[C@H](O)[C@H](O)[C@H]1O [RUTIN],< 1
24,CNc1ccccc1C(=O)N1CCc2c([nH]c3ccccc23)C1=O [Rhetsinine],2.6

row,SMILES,Papp [×10⁻⁶ cm/s]
1,C[S+](CC[C@H](N)C(=O)[O-])C[C@H]1O[C@@H](n2cnc3c(N)ncnc32)[C@H](O)[C@@H]1O (some centres unmarked) [S-ADENOSYLMETHIONINE],< 1
2,OCC(O)Cc1ccc2c(c1)OCO2 (centres unmarked) [SAFROLGLYCOL],1.7
3,O=C(O)c1ccccc1O [SALICYLIC ACID],1.8
4,C[C@@H]1NCCc2cc(O)c(O)cc21 [SALSOLINOL],< 1
5,C[n+]1cc2c3c(ccc2c2ccc4cc5c(cc4c21)OCO5)OCO3 [SANGUINARIUM CHLORIDE],< 1
6,COc1cc(C[C@@H](CO)[C@H](CO)Cc2ccc(O)c(OC)c2)ccc1O [SECOISOLARICIRESINOL],< 1
7,O=C(O)c1cc(O)c2c(c1)[C@@H]([C@H]1c3cc(C(=O)O)cc(O)c3C(=O)c3c(O[C@@H]4O[C@H](CO)[C@@H](O)[C@H](O)[C@H]4O)cccc31)c1cccc(O[C@@H]3O[C@H](CO)[C@@H](O)[C@H](O)[C@H]3O)c1C2=O [SENNOSIDE B],3
8,C[C@H](O)C(=O)C1=Nc2c(nc(N)[nH]c2=O)NC1 [SEPIAPTERIN],1.6
9,NCCc1c[nH]c2ccc(O)cc12 [SEROTONIN HYDROCHLORIDE],< 1
10,COC1=C[C@@H]2[C@@H]3Cc4ccc(OC)c(O)c4[C@]2(CCN3C)CC1=O [SINOMENINE],2.2
11,CC(C)C1=CC2=CC[C@@H]3[C@](C)(CCC[C@@]3(C)C(=O)O)[C@H]2CC1 [SODIUM ABIETATE],< 1
12,CC1=C(O)C(=O)OC1C (centres unmarked) [SOTOLONE],< 1
13,O=c1c(O)c(-c2ccc(O[C@@H]3O[C@H](CO)[C@@H](O)[C@H](O)[C@H]3O)c(O)c2)oc2cc(O)cc(O)c12 [SPIRAEOSIDE],< 1
14,CO[C@@H]1[C@@H](O[C@@H]2O[C@H](C)[C@@H](O[C@H]3C[C@@](C)(O)[C@@H](O)[C@H](C)O3)[C@H](N(C)C)[C@H]2O)[C@@H](CC=O)C[C@@H](C)[C@@H](O[C@H]2CC[C@H](N(C)C)[C@@H](C)O2)/C=C/C=C/C[C@@H](C)OC(=O)C[C@H]1OC(C)=O [SPIRAMYCIN II],7.6
15,COc1cc(C)c2c(c1C=O)Oc1c(c(C)c(O)c3c1C(O)OC3=O)OC2=O (centres unmarked) [STICTIC ACID],< 1
16,Cc1coc2c1C(=O)C(=O)c1c-2ccc2c(C)cccc12 [TANSHINONE I],6.8
17,CC1=C(O)C(=O)[C@@H]2O[C@@H]2C1=O [TERREIC ACID],6.8
18,O=C(O[C@@H]1Cc2c(O)cc(O)cc2O[C@@H]1c1cc(O)c(=O)c2c(O)c(O)cc([C@H]3Oc4cc(O)cc(O)c4C[C@H]3O)c2c1)c1cc(O)c(O)c(O)c1 [THEAFLAVIN MONOGALLATE],< 1
19,O=c1c(O)cc([C@H]2Oc3cc(O)cc(O)c3C[C@H]2O)cc2c([C@H]3Oc4cc(O)cc(O)c4C[C@@H]3O)cc(O)c(O)c12 [THEAFLAVINE],< 1
20,CC(=O)Nc1c2sscc-2n(C)c1=O [THIOLUTIN],< 1
21,C=C(NC(=O)C(=C)NC(=O)c1csc(C2=N[C@@H]3c4csc(n4)[C@H]4NC(=O)c5csc(n5)[C@H]([C@](C)(O)[C@@H](C)O)NC(=O)[C@H]5CSC(=N5)/C(=C/C)NC(=O)[C@H]([C@@H](C)O)NC(=O)c5csc(n5)[C@]3(CC2)NC(=O)[C@H](C)NC(=O)C(=C)NC(=O)[C@H](C)NC(=O)[C@H]([C@@H](C)CC)N[C@@H]2C=Cc3c([C@H](C)O)cc(nc3[C@H]2O)C(=O)O[C@@H]4C)n1)C(N)=O [THIOSTREPTON],< 1
22,O=C(/C=C/c1ccc(O)cc1)OC[C@H]1O[C@@H](Oc2c(-c3ccc(O)cc3)oc3cc(O)cc(O)c3c2=O)[C@H](O)[C@@H](O)[C@@H]1O [TILIROSIDE],< 1
23,CCC/C=C/C/C=C/C=C/C=N/NN=O [TRIACSIN C],8.1

# Same assay, conditions: PAMPA, PAMPA-BBB Pe, Table S2: compounds exhibiting moderate to high PAMPA-BBB permeability
row,SMILES,Papp [×10⁻⁶ cm/s]
1,COc1cc2c(cc1OC)OC(C)(C)C=C2 [PRECOCENE II],159
2,C/C=C(\C)C(=O)O[C@@H]1c2c(ccc3ccc(=O)oc23)OC(C)(C)[C@@H]1OC(C)=O [PTERYXINE],205
3,Cn1c2cccc(=O)c-2nc2ccccc21 [PYOCYANINE],299
4,O=[N+]([O-])c1c(Cl)cccc1-c1c[nH]cc1Cl [PYRROLNITRIN],159
5,COC(=O)C1=CO[C@@H](C)[C@H]2CN3CCc4c([nH]c5ccccc45)[C@@H]3C[C@H]12 [RAUBASINE HYDROCHLORIDE],125
6,C=C(C)[C@]12C[C@@H](C)[C@@]34O[C@](Cc5ccccc5)(O[C@@H]1[C@@H]3C=C(COC(=O)Cc1ccc(O)c(OC)c1)C[C@]1(O)C(=O)C(C)=C[C@@H]41)O2 [RESINIFERATOXIN],38
7,COc1ccc(/C=C/c2cc(O)cc(O)c2)cc1O [RHAPONTIN GENIN],70
8,O=c1c2ccccc2nc2n1CCc1c-2[nH]c2ccccc12 [RUTECARPINE],151
9,COC1=C[C@]23CCN(C)[C@H](Cc4ccc(OC)c(O)c42)C3=CC1=O [SALUTARIDINE],11
10,CC1=C2[C@H]3OC(=O)[C@@H](C)[C@@H]3CC[C@@]2(C)C=CC1=O [SANTONINUM],49
11,COc1ccc(-c2cc(=O)c3c(O)cc(O)c(-c4cc(-c5cc(=O)c6c(O)cc(OC)cc6o5)ccc4OC)c3o2)cc1 [SCIADOPITYSIN],20
12,COc1ccc(-c2cc(=O)c3c(OC)c(OC)c(OC)cc3o2)cc1OC [SINENSETIN],36
13,COc1cc2c(c(OC)c1OC)-c1c(cc(OC)c(OC)c1OC)C[C@H](C)[C@H](C)C2 [S[…]],171
14,COC(=O)C1=CO[C@@H](C)[C@@H]2CN3CCc4c([nH]c5ccccc45)[C@@H]3C[C@H]12 [TETRAHYDROALSTONINE],> 530
15,Cc1ccc(C(C)C)c(O)c1 [THYMOL],168
